Measurements taken from patent US11020457B2, “Compositions and methods for protecting the kidney from ischemia reperfusion injury” (University of Virginia Patent Foundation, priority 2013, dated 2021).
“Also recorded” adds a separate entry of the source.

Legend:
rat model of AI = conditions: AI induced with PG-APS; cited from earlier work
animals models of AKI = conditions: cited from earlier work; for renal IRI severity: literature (37-39; 7, 37)
hepcidin [1] = conditions: hepcidin inducers; cited from earlier work
splenocytes from WT mice = experiment: Iron stimulation of splenocytes, IL-6 secretion by ELISA; format: cell-based; conditions: iron treatment for 4 hours, vs untreated and hepcidin-treated cells, p<0.005; FIG. 10c
Method: Splenocytes were harvested from 10-week-old B6 male mice. After excising the spleen, red blood cells were lysed and the remaining splenocytes were seeded at 1×10^6 cells/mL in 24-well tissue culture plates and cultured under 5% CO2 at 37° C. for 24 hours. The culture medium consisted of RPMI 1640 medium supplemented with 10% fetal calf serum (FCS), 100 U/mL penicillin, 100 μg/mL streptomycin, 1% non-essential amino acids (Gibco/Life Technologies, Foster, Calif., USA), 2 mM L-glutamine (Sigma), and 50/μM 2-mercaptoethanol. After resting for 24 hours, the cells were treated with 10 μM […] (FAC), 1 μg/mL hepcidin or saline for 4 hours. The cell culture supernatants were harvested and quantified for the levels of IL-6 by ELISA (eBioscience).

hepcidin [2] = conditions: within 2-5 days after the start of the treatment; cited from earlier work

c1ccc2c(-c3cnn4cc(-c5ccc(N6CCNCC6)cc5)cnc34)ccnc2c1 [LDN-193189]
anemia of inflammation (AI) (rat model of AI): effectively reversed anemia

CC(=O)N(O)CCCCCNC(=O)CCC(=O)N(O)CCCCCNC(=O)CCC(=O)N(O)CCCCCN [desferrioxamine]
protection in animal models of AKI (animals models of AKI; iron chelation): induces protection in diverse animals models of AKI
renal IRI severity (animals models of AKI): attenuate IRI; also recorded: provide protection and significantly improve its severity and outcomes

CC(C)Oc1ccc2c(=O)c(-c3ccccc3)coc2c1 [ipriflavone]
active concentration, fold below that required for genistein's effect (hepcidin [1]): 10 fold

O=C(CCCCCCC(=O)Nc1ccccc1)NO [vorinostat]
active concentration, fold below that required for genistein's effect (hepcidin [1]): 10 fold

ferrous sulfate [reference compound]
IL-6 secretion into supernatants (splenocytes from WT mice): significantly increased splenocytes IL-6 secretion

low-molecular-weight heparin
decrease of serum hepcidin concentrations (hepcidin [2]): ~80%

superoxide dismutase
renal IRI severity (animals models of AKI): attenuate IRI
